According to patent publication US11787825B2 (priority 2021, dated 2023):
Where two headings read alike, the source gives them in different places.

[1] = 0.1N HCL, 1.0% DMSO, 24-hour incubation at ambient temperature, maximum theoretical compound concentration 100 μM
[2] = 1×PBS buffer (pH 7.4), 1.0% DMSO, 24-hour incubation at ambient temperature, maximum theoretical compound concentration 100 μM

pH 2 solubility [1] | pH 7 solubility [2] | Structure (SMILES) | pH 2 solubility (pH 2) | pH 7 solubility (pH 7.4)
69 μM | 2 μM | CC(C)[C@H](N)C(=O)N(c1nn(CC(F)(F)F)c2c(-c3ccc(C#CC(C)(C)S(C)(=O)=O)nc3[C@H](Cc3cc(F)cc(F)c3)NC(=O)Cn3nc(C(F)(F)F)c4c3C(F)(F)[C@@H]3C[C@H]43)ccc(Cl)c12)S(C)(=O)=O [Compound 20, (S)-2-amino-N-(4-chloro-7-(2-((S)-1-(2-((3bS,4aR)-5,5-difluoro-3-(trifluoromethyl)-3b,4,4a,5-tetrahydro-1H-cyclopropa[3,4]cyclopenta[1,2-c]pyrazol-1-yl)acetamido)-2-(3,5-difluorophenyl)ethyl)-6-(3-methyl-3-(methylsulfonyl)but-1-yn-1-yl)pyridin-3-yl)-1-(2,2,2-trifluoroethyl)-1H-indazol-3-yl)-3-methyl-N-(methylsulfonyl)butanamide] |  | 
14 μM | 22 μM | CC(C)(C#Cc1ccc(-c2ccc(Cl)c3c(N(C(=O)CN(CC(=O)O)CC(=O)O)S(C)(=O)=O)nn(CC(F)(F)F)c23)c([C@H](Cc2cc(F)cc(F)c2)NC(=O)Cn2nc(C(F)(F)F)c3c2C(F)(F)[C@@H]2C[C@H]32)n1)S(C)(=O)=O [Compound 23] |  | 
1 μM | 14 μM | CC(C)(C#Cc1ccc(-c2ccc(Cl)c3c(N(C(=O)[C@H](CCC(=O)O)NC(=O)C(=O)O)S(C)(=O)=O)nn(CC(F)(F)F)c23)c([C@H](Cc2cc(F)cc(F)c2)NC(=O)Cn2nc(C(F)(F)F)c3c2C(F)(F)[C@@H]2C[C@H]32)n1)S(C)(=O)=O [Compound 24, (S)-4-(carboxyformamido)-5-(N-(4-chloro-7-(2-((S)-1-(2-((3bS,4aR)-5,5-difluoro-3-(trifluoromethyl)-3b,4,4a,5-tetrahydro-111-cyclopropa[3,4]cyclopenta[1,2-c]pyrazol-1-yl)acetamido)-2-(3,5-difluorophenyl)ethyl)-6-(3-methyl-3-(methylsulfonyl)but-1-yn-1-yl)pyridin-3-yl)-1-(2,2,2-trifluoroethyl)-1H-indazol-3-yl)methylsulfonamido)-5-oxopentanoic acid] |  | 
1/1 μM | 1/1 μM | CC(C)(C#Cc1ccc(-c2ccc(Cl)c3c(N(C(=O)CCCC(=O)O)S(C)(=O)=O)nn(CC(F)(F)F)c23)c([C@H](Cc2cc(F)cc(F)c2)NC(=O)Cn2nc(C(F)(F)F)c3c2C(F)(F)[C@@H]2C[C@H]32)n1)S(C)(=O)=O [Compound 25, 5-(N-(4-chloro-7-(2-((S)-1-(2-((3bS,4aR)-5,5-difluoro-3-(trifluoromethyl)-3b,4,4a,5-tetrahydro-1H-cyclopropa[3,4]cyclopenta[1,2-c]pyrazol-1-yl)acetamido)-2-(3,5-difluorophenyl)ethyl)-6-(3-methyl-3-(methylsulfonyl)but-1-yn-1-yl)pyridin-3-yl)-1-(2,2,2-trifluoroethyl)-1H-indazol-3-yl)methylsulfonamido)-5-oxopentanoic acid] |  | 
1/1 μM | 1/1 μM | C[C@H](CC(=O)O)C(=O)N(c1nn(CC(F)(F)F)c2c(-c3ccc(C#CC(C)(C)S(C)(=O)=O)nc3[C@H](Cc3cc(F)cc(F)c3)NC(=O)Cn3nc(C(F)(F)F)c4c3C(F)(F)[C@@H]3C[C@H]43)ccc(Cl)c12)S(C)(=O)=O [Compound 26, (R)-4-(N-(4-chloro-7-(2-((S)-1-(2-((3bS,4aR)-5,5-difluoro-3-(trifluoromethyl)-3b,4,4a,5-tetrahydro-1H-cyclopropa[3,4]cyclopenta[1,2-c]pyrazol-1-yl)acetamido)-2-(3,5-difluorophenyl)ethyl)-6-(3-methyl-3-(methylsulfonyl)but-1-yn-1-yl)pyridin-3-yl)-1-(2,2,2-trifluoroethyl)-1H-indazol-3-yl)methylsulfonamido)-3-methyl-4-oxobutanoic acid] |  | 

More lines, now with the values behind:

Structure (SMILES) | pH 2 solubility [1] | pH 7 solubility [2] | pH 2 solubility (pH 2) | pH 7 solubility (pH 7.4)
CN[C@H](C(=O)N(c1nn(CC(F)(F)F)c2c(-c3ccc(C#CC(C)(C)S(C)(=O)=O)nc3[C@H](Cc3cc(F)cc(F)c3)NC(=O)Cn3nc(C(F)(F)F)c4c3C(F)(F)[C@@H]3C[C@H]43)ccc(Cl)c12)S(C)(=O)=O)C(C)C [Compound 21, N-(4-chloro-7-(2-((S)-1-(2-((3bS,4aR)-5,5-difluoro-3-(trifluoromethyl)-3b,4,4a,5-tetrahydro-1H-cyclopropa[3,4]cyclopenta[1,2-c]pyrazol-1-yl)acetamido)-2-(3,5-difluorophenyl)ethyl)-6-(3-methyl-3-(methylsulfonyl)but-1-yn-1-yl)pyridin-3-yl)-1-(2,2,2-trifluoroethyl)-1H-indazol-3-yl)-3-methyl-2-(methylamino)-N-(methylsulfonyl)butanamide] | 72 μM | 2 μM |  | 
Cc1cc(CC(=O)NCC(=O)O)c(C(C)(C)CC(=O)N(c2nn(CC(F)(F)F)c3c(-c4ccc(C#CC(C)(C)S(C)(=O)=O)nc4[C@H](Cc4cc(F)cc(F)c4)NC(=O)Cn4nc(C(F)(F)F)c5c4C(F)(F)[C@@H]4C[C@H]54)ccc(Cl)c23)S(C)(=O)=O)c(OP(=O)(O)O)c1 [Compound 63, (2-(2-(4-(N-(4-chloro-7-(2-((S)-1-(2-((3bS,4aR)-5,5-difluoro-3-(trifluoromethyl)-3b,4,4a,5-tetrahydro-1H-cyclopropa[3,4]cyclopenta[1,2-c]pyrazol-1-yl)acetamido)-2-(3,5-difluorophenyl)ethyl)-6-(3-methyl-3-(methylsulfonyl)but-1-yn-1-yl)pyridin-3-yl)-1-(2,2,2-trifluoroethyl)-1H-indazol-3-yl)methylsulfonamido)-2-methyl-4-oxobutan-2-yl)-5-methyl-3-(phosphonooxy)phenyl)acetyl)glycine] |  |  | 1/85 μM | 1/85 μM
CC(C)(CC(=O)N(c1nn(CC(F)(F)F)c2c(-c3ccc(C#CC(C)(C)S(C)(=O)=O)nc3[C@H](Cc3cc(F)cc(F)c3)NC(=O)Cn3nc(C(F)(F)F)c4c3C(F)(F)[C@@H]3C[C@H]43)ccc(Cl)c12)S(C)(=O)=O)c1c(CC(=O)O)cc(C(N)=O)cc1OP(=O)(O)O [Compound 68] |  |  | <1/65 μM | <1/65 μM
CC(C)(CC(=O)N(c1nn(CC(F)(F)F)c2c(-c3ccc(C#CC(C)(C)S(C)(=O)=O)nc3[C@H](Cc3cc(F)cc(F)c3)NC(=O)Cn3nc(C(F)(F)F)c4c3C(F)(F)[C@@H]3C[C@H]43)ccc(Cl)c12)S(C)(=O)=O)c1c(CC(=O)N[C@@H](CC(=O)O)C(=O)O)cc(C(N)=O)cc1OP(=O)(O)O [Compound 69, (2-(5-carbamoyl-2-(4-(N-(4-chloro-7-(2-((S)-1-(2-((3bS,4aR)-5,5-difluoro-3-(trifluoromethyl)-3b,4,4a,5-tetrahydro-1H-cyclopropa[3,4]cyclopenta[1,2-c]pyrazol-1-yl)acetamido)-2-(3,5-difluorophenyl)ethyl)-6-(3-methyl-3-(methylsulfonyl)but-1-yn-1-yl)pyridin-3-yl)-1-(2,2,2-trifluoroethyl)-1H-indazol-3-yl)methylsulfonamido)-2-methyl-4-oxobutan-2-yl)-3-(phosphonooxy)phenyl)acetyl)-L-aspartic acid] |  |  | 3/75 μM | 3/75 μM
